Reference: ChEMBL document CHEMBL3045844, “Synthetic utility of sydnones: synthesis of pyrazolines derivatized with 1,2,4-triazoles as antihyperglymic, antioxidant agents and their DNA cleavage study” (Med Chem Res, 2012)
Activity calls are given as the source filed them. No cut-off for these calls is given here.

Assays:
[1] = tested on: Radical scavenging activity; experiment: Antioxidant activity assessed as DPPH radical scavenging activity at 100 ug after 20 min; type: functional
[2] = Induction of DNA cleavage at 100 ug after 2 hr by electrophoresis relative to control
[3] = target: T1, Pancreatic alpha-amylase (Homo sapiens) (UniProt P04746); experiment: Activity of alpha amylase (unknown origin) at 1 mg/ml after 10 min relative to control
T1 sequence (whole entry): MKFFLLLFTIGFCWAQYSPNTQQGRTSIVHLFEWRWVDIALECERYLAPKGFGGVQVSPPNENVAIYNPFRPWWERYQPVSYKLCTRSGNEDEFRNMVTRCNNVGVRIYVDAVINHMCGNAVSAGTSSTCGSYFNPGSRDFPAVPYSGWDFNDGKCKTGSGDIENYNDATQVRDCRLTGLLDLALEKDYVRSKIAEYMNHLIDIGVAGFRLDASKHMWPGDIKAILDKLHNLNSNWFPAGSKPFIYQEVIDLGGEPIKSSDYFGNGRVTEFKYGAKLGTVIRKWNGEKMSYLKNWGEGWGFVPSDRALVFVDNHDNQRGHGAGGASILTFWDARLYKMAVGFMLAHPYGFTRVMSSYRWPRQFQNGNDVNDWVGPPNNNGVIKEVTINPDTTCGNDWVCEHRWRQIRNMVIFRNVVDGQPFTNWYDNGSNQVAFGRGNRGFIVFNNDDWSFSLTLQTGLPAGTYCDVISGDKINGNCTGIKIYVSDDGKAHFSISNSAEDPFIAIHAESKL

[4] = tested on: Radical scavenging activity; experiment: Antioxidant activity assessed as DPPH radical scavenging activity at 10 ug after 20 min; type: functional
[5] = tested on: Radical scavenging activity; experiment: Antioxidant activity assessed as DPPH radical scavenging activity at 50 ug after 20 min; type: functional

Structure (SMILES)	Activity [1]	Activity [2]	Activity [3]	Activity [4]	Activity [5]
CC(=O)N1N=C(c2ccc(-n3nc(C)n(N)c3=O)cc2)CC1c1ccc(C)cc1 (stereo not given)	82.5%	Active	96.5%	23%	70.1%
COc1ccc(C2CC(c3ccc(-n4nc(C)n(N)c4=O)cc3)=NN2C(C)=O)cc1 (stereo not given)	2.4%	Active	96.5%	0.6%	2.28%
COc1ccc(C2CC(c3ccc(-n4nc(C)n(N)c4=O)cc3)=NN2C(C)=O)cc1OC (stereo not given)	1.67%	Active	64%	0.48%	1.18%
CC(=O)N1N=C(c2ccc(-n3nc(C)n(N)c3=O)cc2)CC1c1ccc([N+](=O)[O-])cc1 (stereo not given)	1.49%	Active	102%	0.4%	1.09%
CC(=O)N1N=C(c2ccc(-n3nc(C)n(N)c3=O)cc2)CC1c1ccc(O)cc1 (stereo not given)	16.9%	Active	76.7%	3.08%	9.03%
CC(=O)N1N=C(c2ccc(-n3nc(C)n(N)c3=O)cc2)CC1c1ccccc1Cl (stereo not given)	78.4%	Active	76.7%	20%	67.8%
CC(=O)N1N=C(c2ccc(-n3nc(C)n(N)c3=O)cc2)CC1c1cccc(Cl)c1 (stereo not given)	73.8%	Active	96.5%	15.2%	63.8%
CC(=O)N1N=C(c2ccc(-n3nc(C)n(N)c3=O)cc2)CC1c1ccccc1 (stereo not given)	56.1%	Active	129%	24.7%	30.2%
CC(=O)N1N=C(c2ccc(-n3nc(C)n(N)c3=O)cc2)CC1c1ccc(Cl)cc1 (stereo not given)	81.5%	Active	126%	21.7%	69.9%
